Data on 21 compounds can be found in patent US11708348B2, “Protease inhibitors for treatment of coronavirus infections” (The Scripps Research Institute, priority 2021, dated 2023).

SMILES strings stand for the structures.

The test system of the first assay is SARS-CoV-2 strain USA-WA1/2020. The assay is described as follows: microbe, parasite or virus in culture. To be noted: HeLa-ACE2 cells, SARS-CoV-2 infection, 24 h; class symbols; read-out: EC50, uM (Hela). Format: cell-based.
One may read the EC50 as the concentration at which the effect is half-maximal. In the case of `COc1cccc2[nH]c(C(=O)N[C@@H](CC(C)C)C(=O)N[C@@H](C[C@@H]3CCNC3=O)C(=O)COC(=O)c3c(Cl)cccc3Cl)cc12` [Compound 8, (S)-3-((S)-2-(4-methoxy-1H-indole-2-carboxamido)-4-methylpentanamido)-2-oxo-4-((S)-2-oxopyrrolidin-3-yl)butyl 2,6-dichlorobenzoate], the EC50 lay within 0.05 to 0.2 µM.

The assay is the same for the next values; noted with them: Severe acute respiratory syndrome coronavirus 2, HeLa-ACE2, 24 h, HeLa-ACE2 cells, SARS-CoV-2 infection, 24 h; bound printed in cell; read-out: EC50, uM (Hela).
Turning to `CC1(C(=O)N2C[C@@H]3CCC[C@@H]3[C@H]2C(=O)N[C@@H](C[C@@H]2CCNC2=O)C(=O)COC(F)(F)F)CCCO1` (stereo partly drawn) [Compound 310, (1S,3aR,6aS)-2-(2-methyltetrahydrofuran-2-carbonyl)-N-((S)-3-oxo-1-((S)-2-oxopyrrolidin-3-yl)-4-(trifluoromethoxy)butan-2-yl)octahydro-cyclopenta[c]pyrrole-1-carboxamide], the concentration giving a half-maximal response (EC50) is greater than 1 µM. Consider `CO[C@@H]1C[C@@H](C(=O)N[C@@H](C[C@@H]2CCNC2=O)C(=O)COC(F)(F)F)N(C(=O)C(=O)Nc2ccccc2F)C1` [Compound 258, (2S,4R)-1-(2-((2-fluorophenyl)amino)-2-oxoacetyl)-4-methoxy-N-((S)-3-oxo-1-((S)-2-oxopyrrolidin-3-yl)-4-(trifluoromethoxy)butan-2-yl)pyrrolidine-2-carboxamide], for which the EC50 was greater than 1 µM.

The assay is the same for the next values; noted with them: Severe acute respiratory syndrome coronavirus 2, HeLa-ACE2, 24 h, HeLa-ACE2 cells, SARS-CoV-2 infection, 24 h; cells given as a bound; read-out: EC50, uM (Hela).
For the compound `O=C(Nc1ccccc1F)C(=O)N1CCC[C@@H](C(=O)N[C@@H](C[C@@H]2CCNC2=O)C(=O)COc2c(F)c(F)cc(F)c2F)C1` [Compound 95, (R)-1-(2-((2-fluorophenyl)amino)-2-oxoacetyl)-N-((S)-3-oxo-1-((S)-2-oxopyrrolidin-3-yl)-4-(2,3,5,6-tetrafluorophenoxy)butan-2-yl)piperidine-3-carboxamide], the EC50 is greater than 1 µM.

The same assay, now with this note: Severe acute respiratory syndrome coronavirus 2, HeLa-ACE2, 24 h, HeLa-ACE2 cells, SARS-CoV-2 infection, 24 h; class symbols; read-out: EC50, uM (Hela).
For the compound `O=C1NCC[C@H]1C[C@H](NC(=O)[C@@H]1[C@H]2CCC[C@H]2CN1C(=O)C12CC(C(F)(F)F)(CO1)C2)C(=O)COC(F)(F)F` [Compound 315, (1S,3aR,6aS)-N-((S)-3-oxo-1-((S)-2-oxopyrrolidin-3-yl)-4-(trifluoromethoxy)butan-2-yl)-2-(4-(trifluoromethyl)-2-oxabicyclo[2.1.1]-hexane-1-carbonyl)-octahydrocyclopenta-[c]pyrrole-1-carboxamide], the EC50 was less than 0.05 µM. For the compound `CC(C)C[C@H](NC(=O)C(=O)NC1CC1)C(=O)N[C@@H](C[C@@H]1CCNC1=O)C(=O)COc1c(F)c(F)cc(F)c1F` [Compound 98, N1-cyclopropyl-N2-((S)-4-methyl-1-oxo-1-(((S)-3-oxo-1-((S)-2-oxopyrrolidin-3-yl)-4-(2,3,5,6-tetrafluorophenoxy)butan-2-yl)amino)pentan-2-yl)oxalamide], the EC50 is 0.05 to 0.2 µM. Turning to `CC(C)C[C@H](NC(=O)C12CCC(CC1)O2)C(=O)N[C@@H](C[C@@H]1CCNC1=O)C(=O)COC(F)(F)F` [Compound 309, N-((S)-4-methyl-1-oxo-1-(((S)-3-oxo-1-((S)-2-oxopyrrolidin-3-yl)-4-(trifluoromethoxy)butan-2-yl)amino)pentan-2-yl)-7-oxabicyclo [2.2.1]-heptane-1-carboxamide], the EC50 was less than 0.05 µM.

Take `CC(C)C[C@H](NC(=O)C(=O)NC1CCCCC1(F)F)C(=O)N[C@@H](C[C@@H]1CCNC1=O)C(=O)COC(F)(F)F` (stereo partly drawn) [Compound 169, N1-(2,2-difluorocyclohexyl)-N2-((S)-4-methyl-1-oxo-1-(((S)-3-oxo-1-((S)-2-oxopyrrolidin-3-yl)-4-(trifluoromethoxy)butan-2-yl)amino)pentan-2-yl)oxalamide]: the EC50 is less than 0.05 µM. The same measure, in the same setting: the figure for `CCC[C@@H](O)C(=O)N1C[C@H]2[C@@H]([C@H]1C(=O)N[C@@H](C[C@@H]1CCNC1=O)C(=O)COC(F)(F)F)C2(C)C` [Compound 378, (1R,2S,5S)-3-((R)-2-hydroxypentanoyl)-6,6-dimethyl-N-((S)-3-oxo-1-((S)-2-oxopyrrolidin-3-yl)-4-(trifluoromethoxy)butan-2-yl)-3-azabicyclo[3.1.0]-hexane-2-carboxamide] is less than 0.05 µM. As for `CC(C)(O)C(=O)N1C[C@@H]2CCC[C@@H]2[C@H]1C(=O)N[C@@H](C[C@@H]1CCNC1=O)C(=O)COC(F)(F)F` [Compound 352, (1S,3aR,6aS)-2-(2-hydroxy-2-methylpropanoyl)-N-((S)-3-oxo-1-((S)-2-oxopyrrolidin-3-yl)-4-(trifluoromethoxy)butan-2-yl)octahydrocyclo-penta[c]pyrrole-1-carboxamide], the EC50 fell in the range of 0.05 to 0.2 µM. For `CC(C)C(F)(F)C(NC(=O)C(=O)Nc1ccccc1F)C(=O)N[C@@H](C[C@@H]1CCNC1=O)C(=O)COc1c(F)c(F)cc(F)c1F` (stereo partly drawn) [Compound 76, N1-(3,3-difluoro-4-methyl-1-oxo-1-(((S)-3-oxo-1-((S)-2-oxopyrrolidin-3-yl)-4-(2,3,5,6-tetrafluorophenoxy)butan-2-yl)amino)pentan-2-yl)-N2-(2-fluorophenyl)oxalamide], the concentration giving a half-maximal response (EC50) lay within 0.05 to 0.2 µM. Take `CC(C)C[C@@H](OC(=O)NC1CCCCC1)C(=O)N1CC2(CC2)C[C@H]1C(=O)N[C@@H](C[C@@H]1CCNC1=O)C(=O)COC(F)(F)F` [Compound 330, (R)-4-methyl-1-oxo-1-((S)-6-(((S)-3-oxo-l-((S)-2-oxopyrrolidin-3-yl)-4-(trifluoromethoxy)butan-2-yl)carbamoyl)-5-azaspiro[2.4]heptan-5-yl)pentan-2-yl cyclohexylcarbamate]: the EC50 was less than 0.05 µM. Take `O=C1NCC[C@H]1C[C@H](NC(=O)[C@H](CC1CC1)NC(=O)[C@H]1CCCO1)C(=O)COC(F)(F)F` [Compound 300, (R)-N-((S)-3-cyclopropyl-1-oxo-1-(((S)-3-oxo-1-((S)-2-oxopyrrolidin-3-yl)-4-(trifluoromethoxy)butan-2-yl)amino)propan-2-yl)tetrahydrofuran-2-carboxamide]: the EC50 was less than 0.05 µM. Turning to `C[C@](O)(C(=O)N1CC2(CC2)C[C@H]1C(=O)N[C@@H](C[C@@H]1CCNC1=O)C(=O)COC(F)(F)F)c1ccccc1` [Compound 365, (S)-5-((R)-2-hydroxy-2-phenylpropanoyl)-N-((S)-3-oxo-1-((S)-2-oxopyrrolidin-3-yl)-4-(trifluoromethoxy)butan-2-yl)-5-azaspiro[2.4]-heptane-6-carboxamide], the EC50 was less than 0.05 µM.

Regarding `O=C(NCC(F)(F)F)C(=O)NC(CC1CCOCC1)C(=O)N[C@@H](C[C@@H]1CCNC1=O)C(=O)COC(F)(F)F` (stereo partly drawn) [Compound 267, N1-(1-oxo-1-(((S)-3-oxo-1-((S)-2-oxopyrrolidin-3-yl)-4-(trifluoromethoxy)butan-2-yl)amino)-3-(tetrahydro-2H-pyran-4-yl)propan-2-yl)-N2-(2,2,2-trifluoroethyl)-oxalamide], the EC50 fell in the range of 0.5 to 1 µM.

The same assay, now with this note: Severe acute respiratory syndrome coronavirus 2, HeLa-ACE2, 24 h, HeLa-ACE2 cells, SARS-CoV-2 infection, 24 h; given as a bound, not a class symbol; read-out: EC50, uM (Hela).
Regarding `CC(C)(C)[C@H](NC(=O)NC1CC1)C(=O)N1C[C@H]2[C@@H]([C@H]1C(=O)N[C@@H](C[C@@H]1CCNC1=O)C(=O)COC(F)(F)F)C2(C)C` [Compound 634, (1R,2S,5S)-3-((S)-2-(3-cyclopropylureido)-3,3-dimethylbutanoyl)-6,6-dimethyl-N-((S)-3-oxo-1-((S)-2-oxopyrrolidin-3-yl)-4-(trifluoromethoxy)butan-2-yl)-3-azabicyclo[3.1.0]hexane-2-carboxamide], the EC50 was greater than 1 µM.

The same assay, now with this note: Severe acute respiratory syndrome coronavirus 2, HeLa-ACE2, 24 h, HeLa-ACE2 cells, SARS-CoV-2 infection, 24 h; read-out: EC50, uM (Hela).
Consider `CC(C)C[C@@H](O)C(=O)N1CC2(CC2)C[C@H]1C(=O)N[C@@H](C[C@@H]1CCCNC1=O)C(=O)COc1c(F)c(F)c(F)c(F)c1F` [Compound 779, (S)-5-((R)-2-hydroxy-4-methylpentanoyl)-N-((S)-3-oxo-1-((S)-2-oxopiperidin-3-yl)-4-(perfluorophenoxy)butan-2-yl)-5-azaspiro[2.4]heptane-6-carboxamide], for which the EC50 is less than 0.05 µM. Same read-out and setting: the figure for `COC(C(=O)N1C[C@@H]2CCC[C@@H]2[C@H]1C(=O)N[C@@H](C[C@@H]1CCNC1=O)C(=O)COC(F)(F)F)c1cncc(Cl)n1` (stereo partly drawn) [Compound 621, (1S,3aR,6aS)-2-(2-(6-chloropyrazin-2-yl)-2-methoxyacetyl)-N-((S)-3-oxo-1-((S)-2-oxopyrrolidin-3-yl)-4-(trifluoromethoxy)butan-2-yl)octahydrocyclopenta[c]pyrrole-1-carboxamide] is 0.05 to 0.2 µM. `CC(C)C[C@@H](O)C(=O)N1C[C@H](c2ccccc2)C[C@H]1C(=O)N[C@@H](C[C@@H]1CCNC1=O)C(=O)COC(F)(F)F` [Compound 761, (2S,4S)-1-((R)-2-hydroxy-4-methylpentanoyl)-N-((S)-3-oxo-1-((S)-2-oxopyrrolidin-3-yl)-4-(trifluoromethoxy)butan-2-yl)-4-phenylpyrrolidine-2-carboxamide]: the EC50 was less than 0.05 µM.

Consider `CC(C)(C)NC(=O)C(=O)N1CC2(CCOCC2)CC1C(=O)N[C@@H](C[C@@H]1CCNC1=O)C(=O)COC(F)(F)F` (stereo partly drawn) [Compound 522, 2-(2-(tert-butylamino) -2-oxoacetyl)-N-((S)-3-oxo-1-((S)-2-oxopyrrolidin-3-yl)-4-(trifluoromethoxy)butan-2-yl)-8-oxa-2-azaspiro[4.5]decane-3-carboxamide], for which the EC50 fell in the range of 0.5 to 1 µM. Regarding `O=C(Nc1ccccc1F)C(=O)N1CC2(CCOCC2)CC1C(=O)N[C@@H](C[C@@H]1CCNC1=O)C(=O)COC(F)(F)F` (stereo partly drawn) [Compound 530, 2-(2-((2-fluorophenyl)amino)-2-oxoacetyl)-N-((S)-3-oxo-1-((S)-2-oxopyrrolidin-3-yl)-4-(trifluoromethoxy)butan-2-yl)-8-oxa-2-azaspiro[4.5]decane-3-carboxamide], the EC50 was 0.5 to 1 µM.
